Where “and” joins values, the source holds several entries; their conditions need not be identical. Equal values may be shown once. Toxic doses and inconclusive results are not listed.
Tested on: CD2F1 mice, L1210 leukemia ip, survival T/C
Assay: NCI In Vivo Anticancer Drug Screen. Data for tumor model L1210 Leukemia (intraperitoneal) in CD2F1 (CDF1) mice
Conditions: higher = longer survival
Method in brief: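 Implant tumor; dose compound or vehicle; measure endpoint in both groups; report treated divided by control.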

[1] = endpoint: mean survival time, dose: 50.0 mg/kg/injection, schedule: Q01DX009 (ip), vehicle: saline with Tween-80
[2] = endpoint: mean survival time, dose: 100.0 mg/kg/injection, schedule: Q01DX009 (ip), vehicle: saline with Tween-80
[3] = endpoint: mean survival time, dose: 100.0 mg/kg/injection, schedule: Q04DX003 (ip), vehicle: saline with Tween-80
[4] = endpoint: mean survival time, dose: 200.0 mg/kg/injection, schedule: Q04DX003 (ip), vehicle: saline with Tween-80
[5] = endpoint: mean survival time, dose: 12.5 mg/kg/injection, schedule: Q01DX009 (ip), vehicle: saline
[6] = endpoint: mean survival time, dose: 25.0 mg/kg/injection, schedule: Q01DX009 (ip), vehicle: saline
[7] = endpoint: mean survival time, dose: 50.0 mg/kg/injection, schedule: Q01DX009 (ip), vehicle: saline
[8] = endpoint: mean survival time, dose: 100.0 mg/kg/injection, schedule: Q01DX001 (ip), vehicle: saline with Tween-80
[9] = endpoint: mean survival time, dose: 200.0 mg/kg/injection, schedule: Q01DX001 (ip), vehicle: saline with Tween-80
[10] = endpoint: mean survival time, dose: 400.0 mg/kg/injection, schedule: Q01DX001 (ip), vehicle: saline with Tween-80
[11] = endpoint: mean survival time, dose: 200.0 mg/kg/injection, schedule: Q01DX009 (ip), vehicle: saline with Tween-80
[12] = endpoint: mean survival time, dose: 400.0 mg/kg/injection, schedule: Q01DX009 (ip), vehicle: saline with Tween-80
[13] = endpoint: mean survival time, dose: 400.0 mg/kg/injection, schedule: Q04DX003 (ip), vehicle: saline with Tween-80

## CCN(CC)C(=O)C(Cc1ccc(OC)c(OC)c1)C(Cc1ccc(OC)c(OC)c1)C(=O)O (stereo unspecified)
endpoint: mean survival time, dose: 100.0 mg/kg/injection, schedule: Q01DX009 (ip), vehicle: other
  T/C: 98 % of control
endpoint: mean survival time, dose: 200.0 mg/kg/injection, schedule: Q01DX009 (ip), vehicle: other
  T/C: 98 % of control
endpoint: mean survival time, dose: 400.0 mg/kg/injection, schedule: Q01DX009 (ip), vehicle: other
  T/C: 95 % of control

## NCCSc1ccccc1
endpoint: mean survival time, dose: 12.5 mg/kg/injection, schedule: Q01DX009 (ip), vehicle: saline with Tween-80
  T/C: 89 % of control
endpoint: mean survival time, dose: 25.0 mg/kg/injection, schedule: Q01DX009 (ip), vehicle: saline with Tween-80
  T/C: 89 % of control
[1]
  T/C: 90 % of control and 108 % of control
[2]
  T/C: 87 % of control and 98 % of control

## NC(=S)N/N=C/c1ccccn1
endpoint: mean survival time, dose: 1.56 mg/kg/injection, schedule: Q04DX002 (ip), vehicle: Klucel (hydroxypropylcellulose) (HPC)
  T/C: 108 % of control
endpoint: mean survival time, dose: 3.12 mg/kg/injection, schedule: Q04DX002 (ip), vehicle: Klucel (hydroxypropylcellulose) (HPC)
  T/C: 112 % of control
endpoint: mean survival time, dose: 6.25 mg/kg/injection, schedule: Q04DX002 (ip), vehicle: Klucel (hydroxypropylcellulose) (HPC)
  T/C: 92 % of control
endpoint: mean survival time, dose: 6.7 mg/kg/injection, schedule: Q01DX009 (ip), vehicle: saline with Tween-80
  T/C: 151 % of control
endpoint: mean survival time, dose: 10.0 mg/kg/injection, schedule: Q01DX009 (ip), vehicle: saline with Tween-80
  T/C: 107 % of control
endpoint: mean survival time, dose: 15.0 mg/kg/injection, schedule: Q01DX009 (ip), vehicle: saline with Tween-80
  T/C: 93 % of control

## COc1ccc(CNCCCCCCNCc2ccc(OC)cc2)cc1
[1]
  T/C: 100 % of control
[2]
  T/C: 95 % of control
[3]
  T/C: 101 % of control
[4]
  T/C: 87 % of control

## COC(=O)[C@H]1[C@H]2C[C@@H]3c4[nH]c5cc(OC)ccc5c4CCN3C[C@H]2C[C@@H](OC(=O)c2cc(OC)c(OC)c(OC)c2)[C@@H]1OC
endpoint: mean survival time, dose: 3.0 mg/kg/injection, schedule: Q01DX009 (ip), vehicle: saline with Tween-80
  T/C: 95 % of control
endpoint: mean survival time, dose: 6.0 mg/kg/injection, schedule: Q01DX009 (ip), vehicle: saline with Tween-80
  T/C: 94 % of control
endpoint: mean survival time, dose: 12.5 mg/kg/injection, schedule: Q04DX003 (ip), vehicle: saline with Tween-80
  T/C: 90 % of control
endpoint: mean survival time, dose: 50.0 mg/kg/injection, schedule: Q04DX003 (ip), vehicle: saline with Tween-80
  T/C: 89 % of control

## C=C1CC2(OC1=O)C(=O)N(C)c1ccc(I)cc12 (stereo unspecified)
endpoint: mean survival time, dose: 6.25 mg/kg/injection, schedule: Q01DX009 (ip), vehicle: saline
  T/C: 100 % of control and 104 % of control
[5]
  T/C: 100 % of control and 112 % of control
[6]
  T/C: 117 % of control and 102 % of control
[7]
  T/C: 105 % of control

## O=C(OC1C=Cc2ccccc21)c1ccc([N+](=O)[O-])cc1 (stereo unspecified)
[8]
  T/C: 97 % of control
[9]
  T/C: 90 % of control
[10]
  T/C: 97 % of control

## CC1(O)CSC(C)(O)CS1 (stereo unspecified)
endpoint: mean survival time, dose: 6.25 mg/kg/injection, schedule: Q04DX002 (ip), vehicle: saline with Tween-80
  T/C: 104 % of control
endpoint: mean survival time, dose: 12.5 mg/kg/injection, schedule: Q04DX002 (ip), vehicle: saline with Tween-80
  T/C: 100 % of control
endpoint: mean survival time, dose: 25.0 mg/kg/injection, schedule: Q04DX002 (ip), vehicle: saline with Tween-80
  T/C: 104 % of control

## O=c1oc(-c2ccccc2Cl)nc2cc(Cl)ccc12
[3]
  T/C: 101 % of control
[4]
  T/C: 94 % of control

## ClCC[N+]12CC[N+](CCCl)(CC1)C2
endpoint: mean survival time, dose: 6.25 mg/kg/injection, schedule: Q01DX009 (ip), vehicle: water
  T/C: 95 % of control and 106 % of control and 109 % of control
[5]
  T/C: 106 % of control [middle of 4 runs]
endpoint: mean survival time, dose: 12.5 mg/kg/injection, schedule: Q01DX009 (ip), vehicle: water
  T/C: 117 % of control and 104 % of control and 108 % of control
[6]
  T/C: 110 % of control [middle of 4 runs]
endpoint: mean survival time, dose: 25.0 mg/kg/injection, schedule: Q01DX009 (ip), vehicle: water
  T/C: 115 % of control and 106 % of control and 109 % of control
[7]
  T/C: 117 % of control and 102 % of control and 109 % of control
endpoint: mean survival time, dose: 50.0 mg/kg/injection, schedule: Q01DX009 (ip), vehicle: water
  T/C: 113 % of control and 119 % of control and 120 % of control
endpoint: mean survival time, dose: 50.0 mg/kg/injection, schedule: Q04DX003 (ip), vehicle: saline
  T/C: 102 % of control
endpoint: mean survival time, dose: 66.0 mg/kg/injection, schedule: Q01DX009 (ip), vehicle: saline
  T/C: 154 % of control
endpoint: mean survival time, dose: 100.0 mg/kg/injection, schedule: Q01DX009 (ip), vehicle: saline
  T/C: 116 % of control and 94 % of control
endpoint: mean survival time, dose: 100.0 mg/kg/injection, schedule: Q01DX009 (ip), vehicle: water
  T/C: 111 % of control
endpoint: mean survival time, dose: 100.0 mg/kg/injection, schedule: Q04DX003 (ip), vehicle: saline
  T/C: 102 % of control
endpoint: mean survival time, dose: 150.0 mg/kg/injection, schedule: Q01DX009 (ip), vehicle: saline
  T/C: 190 % of control
endpoint: mean survival time, dose: 150.0 mg/kg/injection, schedule: Q04DX003 (ip), vehicle: saline
  T/C: 118 % of control
endpoint: mean survival time, dose: 200.0 mg/kg/injection, schedule: Q01DX009 (ip), vehicle: saline
  T/C: 108 % of control [middle of 5 runs]
endpoint: mean survival time, dose: 200.0 mg/kg/injection, schedule: Q04DX003 (ip), vehicle: saline
  T/C: 123 % of control
endpoint: mean survival time, dose: 300.0 mg/kg/injection, schedule: Q04DX003 (ip), vehicle: saline
  T/C: 119 % of control
endpoint: mean survival time, dose: 400.0 mg/kg/injection, schedule: Q01DX009 (ip), vehicle: saline
  T/C: 121 % of control and 105 % of control
endpoint: mean survival time, dose: 400.0 mg/kg/injection, schedule: Q04DX003 (ip), vehicle: saline
  T/C: 178 % of control

## CN(C)S(=O)(=O)c1ccccc1C(O)(c1ccccc1)c1ccccc1
[2]
  T/C: 103 % of control
[3]
  T/C: 104 % of control
[11]
  T/C: 94 % of control
[4]
  T/C: 101 % of control
[12]
  T/C: 101 % of control
[13]
  T/C: 98 % of control

## CON=C(/C=C\c1ccccc1)/C=C/c1ccccc1
[8]
  T/C: 102 % of control
[2]
  T/C: 103 % of control
[9]
  T/C: 98 % of control
[11]
  T/C: 101 % of control
[10]
  T/C: 93 % of control
[12]
  T/C: 97 % of control

## COc1cc2c(cc1O)-c1cc3ccc(OC)c(OC)c3c[n+]1CC2
endpoint: mean survival time, dose: 25.0 mg/kg/injection, schedule: Q04DX002 (ip), vehicle: saline
  T/C: 111 % of control
endpoint: mean survival time, dose: 25.0 mg/kg/injection, schedule: Q04DX003 (ip), vehicle: suspension in saline
  T/C: 94 % of control
endpoint: mean survival time, dose: 50.0 mg/kg/injection, schedule: Q04DX002 (ip), vehicle: saline
  T/C: 97 % of control
endpoint: mean survival time, dose: 50.0 mg/kg/injection, schedule: Q04DX003 (ip), vehicle: suspension in saline
  T/C: 90 % of control
endpoint: mean survival time, dose: 100.0 mg/kg/injection, schedule: Q04DX002 (ip), vehicle: saline
  T/C: 104 % of control
endpoint: mean survival time, dose: 100.0 mg/kg/injection, schedule: Q04DX003 (ip), vehicle: suspension in saline
  T/C: 102 % of control
endpoint: mean survival time, dose: 200.0 mg/kg/injection, schedule: Q04DX002 (ip), vehicle: saline
  T/C: 104 % of control
endpoint: mean survival time, dose: 200.0 mg/kg/injection, schedule: Q04DX003 (ip), vehicle: suspension in saline
  T/C: 109 % of control

## O=P1(C(Cl)Cl)OCCCCO1
endpoint: mean survival time, dose: 100.0 mg/kg/injection, schedule: Q01DX001 (ip), vehicle: saline
  T/C: 102 % of control
endpoint: mean survival time, dose: 200.0 mg/kg/injection, schedule: Q01DX001 (ip), vehicle: saline
  T/C: 102 % of control
endpoint: mean survival time, dose: 400.0 mg/kg/injection, schedule: Q01DX001 (ip), vehicle: saline
  T/C: 105 % of control

## CNC(=O)OCc1nc(SC)n(C)c1COC(=O)NC
endpoint: median survival time, dose: 12.5 mg/kg/injection, schedule: Q01DX005 (ip), vehicle: saline
  T/C: 103 % of control
endpoint: median survival time, dose: 12.5 mg/kg/injection, schedule: Q01DX005 (ip), vehicle: suspension in saline
  T/C: 111 % of control
endpoint: median survival time, dose: 25.0 mg/kg/injection, schedule: Q01DX005 (ip), vehicle: saline
  T/C: 111 % of control
endpoint: median survival time, dose: 25.0 mg/kg/injection, schedule: Q01DX005 (ip), vehicle: suspension in saline
  T/C: 114 % of control
endpoint: median survival time, dose: 65.0 mg/kg/injection, schedule: Q01DX005 (ip), vehicle: saline
  T/C: 175 % of control
endpoint: median survival time, dose: 200.0 mg/kg/injection, schedule: Q01DX005 (ip), vehicle: suspension in saline
  T/C: 87 % of control

## CC(=O)OCCN(CCOC(C)=O)CCOC(C)=O
endpoint: mean survival time, dose: 100.0 mg/kg/injection, schedule: Q04DX003 (ip), vehicle: Klucel (hydroxypropylcellulose) (HPC)
  T/C: 95 % of control

## Nc1ccc(N)c(N)n1
endpoint: mean survival time, dose: 6.25 mg/kg/injection, schedule: Q01DX009 (ip), vehicle: saline sonified
  T/C: 105 % of control
endpoint: mean survival time, dose: 12.5 mg/kg/injection, schedule: Q01DX009 (ip), vehicle: saline sonified
  T/C: 96 % of control
endpoint: mean survival time, dose: 25.0 mg/kg/injection, schedule: Q01DX009 (ip), vehicle: saline sonified
  T/C: 108 % of control

## Cc1c(C(=O)c2no[n+]([O-])c2C(=O)c2c(C)c([N+](=O)[O-])c(C)c([N+](=O)[O-])c2C)c(C)c([N+](=O)[O-])c(C)c1[N+](=O)[O-]
[2]
  T/C: 87 % of control
[3]
  T/C: 102 % of control
[11]
  T/C: 96 % of control
[4]
  T/C: 88 % of control
[12]
  T/C: 88 % of control
[13]
  T/C: 98 % of control
